# Results taken from paper PMC6430017, “Structural and chemical insights into the covalent-allosteric inhibition of the protein kinase Akt” (Chemical Science, 2019).
# Like-named read-outs stand apart in the source and are kept apart here.
# Tests used:
# [1] = molecular target: T1, full-length Akt (Akt^wt) (Homo sapiens, UniProt P31749); test: HTRF KinEASE activity-based assay, IC50 determination; format: biochemical; details: for IC50: HTRF KinEASE
# Experimental: (§1) The biochemical inhibitory activity (IC50) was determined with the HTRF KinEASE assay from Cisbio as
# (§2) previously described.1 All reagents for HTRF experiments were purchased from Cisbio Bioassays,
# (§3) France. The measurements were analyzed using the Quattro Software Suite for IC50-determination.
# (§4) Time-dependent IC50-measurements were performed as described. Briefly, IC50 values were
# (§5) determined for twelve different incubation times and afterwards plotted versus accordingly. Data was
# (§6) analyzed according to literature procedure.2
# [2] = tested on: T47D; test: Cell viability assay (CellTiter-Glo); format: cell-based; details: Homo sapiens, 120 h, read-out: Cell viability assay EC50
# Experimental: Cell Culture and Viability Assay
# (§7) analysis, cells were plated on day 0 into white 384-well cell culture plates (Greiner Bio-One) using a
# (§8) Multidrop reagent dispenser (Thermo) at cell numbers that ensure linear and optimal luminescent
# (§9) signal intensity (AN3-CA: 800 cells/well; BT-474: 400 cells/well; Dan-G: 400 cells/well; HPAF-II: 400
# (§10) cells/well). Then the cells were incubated for 24 h in a humidified atmosphere at 37 °C/5 % CO2. The
# (§11) cells were treated with inhibitors in serial dilutions ranging from 30 µM down to 0.1 nM using an Echo
# (§12) 520 acoustic liquid handler (Labcyte Inc.). Cell viability was analysed on day 5 using the CellTiter-Glo
# (§13) assay (Promega) as per manufacturer’s instructions. Luminescence signal was recorded by an EnVision
# (§14) Multilabel 2104 Plate Reader (PerkinElmer) with 500 ms integration time. All data were normalized to
# (§15) the plate positive control (30 µM staurosporine) and negative control (DMSO). Finally, the data was
# (§16) processed with the Quattro Software Suite using a four parameter logistic model. As a quality control,
# (§17) the Z’-factor was calculated from 16 positive and negative control values. Only assay results showing
# (§18) a Z’-factor ≥ 0.5 were used for further analysis. All experimental points were measured in duplicates
# (§19) for each plate and were replicated in at least three times.
# [3] = tested on: MCF-7; test: Cell viability assay (CellTiter-Glo); format: cell-based; details: Homo sapiens, MCF7, 120 h, read-out: Cell viability assay EC50
# Experimental: Cell Culture and Viability Assay
# as §7, §8, §9, §10, §11, §12, §13, §14, §15, §16, §17, §18, §19
# [4] = tested on: KU-19-19; test: Cell viability assay (CellTiter-Glo); format: cell-based; details: Homo sapiens, read-out: Cell viability assay EC50
# Experimental: Cell Culture and Viability Assay
# as §7, §8, §9, §10, §11, §12, §13, §14, §15, §16, §17, §18, §19
# [5] = tested on: BT-474; test: Cell viability assay (CellTiter-Glo); format: cell-based; details: Homo sapiens, read-out: Cell viability assay EC50
# Experimental: Cell Culture and Viability Assay
# as §7, §8, §9, §10, §11, §12, §13, §14, §15, §16, §17, §18, §19
# [6] = tested on: ZR-75-1; test: Cell viability assay (CellTiter-Glo); format: cell-based; details: Homo sapiens, read-out: Cell viability assay EC50
# Experimental: Cell Culture and Viability Assay
# as §7, §8, §9, §10, §11, §12, §13, §14, §15, §16, §17, §18, §19
# [7] = tested on: AN3CA; test: Cell viability assay (CellTiter-Glo); format: cell-based; details: Homo sapiens, AN3-CA, 120 h, read-out: Cell viability assay EC50
# Experimental: Cell Culture and Viability Assay
# as §7, §8, §9, §10, §11, §12, §13, §14, §15, §16, §17, §18, §19
# [8] = molecular target: T1, full-length Akt (Akt^wt); test: Kinetic characterization by time-dependent IC50 measurements; format: biochemical; details: from time-dependent IC50
# Experimental: as §1, §2, §3, §4, §5, §6
# [9] = Phase I metabolic stability assay; details: human
# Experimental: (§20) For this purpose, we used a microsomal stability assay that is a good predictor for phase I metabolic stability.[50]
# (§21) Metabolic stability under oxidative conditions was determined by LCMS-based measuring of
# (§22) degradation of compounds at 3 µM in human and murine liver microsomes over 60 minutes at 37 °C
# (§23) Calculating the compound half-life t1/2, the in vitro intrinsic clearance CLint is
# [10] = in vitro; details: human, microsomes
# Experimental: as §20, §21, §22, §23
# [11] = 120 h, KU-19-19 (bladder), day 5
# T1 sequence (P31749 whole entry): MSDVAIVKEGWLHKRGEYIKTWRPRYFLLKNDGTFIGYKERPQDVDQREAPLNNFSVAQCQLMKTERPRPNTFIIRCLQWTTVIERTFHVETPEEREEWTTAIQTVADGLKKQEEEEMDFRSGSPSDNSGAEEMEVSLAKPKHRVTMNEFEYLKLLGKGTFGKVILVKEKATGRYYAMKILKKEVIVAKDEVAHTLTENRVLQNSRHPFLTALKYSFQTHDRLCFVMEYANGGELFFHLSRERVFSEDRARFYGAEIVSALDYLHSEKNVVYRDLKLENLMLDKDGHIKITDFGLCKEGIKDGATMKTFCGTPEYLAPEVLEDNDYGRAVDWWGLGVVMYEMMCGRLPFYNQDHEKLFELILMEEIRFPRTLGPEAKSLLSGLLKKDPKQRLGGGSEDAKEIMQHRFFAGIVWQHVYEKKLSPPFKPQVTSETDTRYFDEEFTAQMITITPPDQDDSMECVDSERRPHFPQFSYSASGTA
Compound,IC50 [1],"EC50 ([2]; T47D (breast), day 5)","EC50 ([3]; MCF-7 (breast), day 5)","EC50 ([5]; 120 h, BT-474 (breast), day 5)",Ki [8],kinact [8],kinact/KI [8],"half-life at 1 h, 3 µM ([9]; liver microsomes)",microsomal CLint at 3 µM ([9]; liver microsomes),"EC50 [4, 11]","EC50 ([6]; 120 h, ZR-75-1 (breast), day 5)","EC50 ([7]; AN3CA (endometrium), day 5)",other results
C=CC(=O)Nc1ccc(N2CCN(Cc3ccc(-c4nc5cc[nH]c(=O)c5cc4-c4ccccc4)cc3)CC2)cc1 [compound 31],–,832 ± 81 nM,1220 ± 58 nM,4620 ± 1060 nM,–,–,–,–,–,–,116 ± 16 nM,3610 ± 1290 nM,–
"COc1cccc2c1C(=O)c1c(O)c3c(c(O)c1C2=O)C[C@@](O)(C(=O)CO)C[C@@H]3O[C@H]1C[C@H](N)[C@H](O)[C@H](C)O1 [Doxorubicin, reference compound]",–,127 ± 40 nM,153 ± 9 nM,623 ± 134 nM,–,–,–,–,–,72 ± 8 nM,100 ± 26 nM,30 ± 9 nM,–
"C=CC(=O)Nc1ccc2[nH]c(=O)n(C3CCN(Cc4ccc(-c5nc6cc[nH]c(=O)c6cc5-c5ccccc5)cc4)CC3)c2c1 [compound 1, borussertib]",–,–,–,–,–,–,–,–,–,–,–,–,"EC50 [3]: 277 ± 90 nM; EC50 ([4]; KU-19-19, 120 h): 7770 ± 641 nM; EC50 ([5]; BT-474, 120 h): 373 ± 54 nM; half-life at 1 h, 3 µM ([9]; microsomes): 99 min; microsomal CLint at 3 µM ([9]; microsomes): 5 µL/min/mg"
"CC(C)NC[C@@H](C(=O)N1CCN(c2ncnc3c2[C@H](C)C[C@H]3O)CC1)c1ccc(Cl)cc1 [Ipatasertib, reference compound]",–,–,–,–,–,–,–,39 min,12 µL/min/mg,–,–,–,"EC50 ([2]; T47D): 443 ± 6 nM; EC50 [3]: 5040 ± 1830 nM; EC50 ([5]; BT-474, 120 h): 2370 ± 745 nM; EC50 ([6]; ZR-75-1, 120 h): 219 ± 83 nM; EC50 [7]: 925 ± 457 nM"
C=CC(=O)Nc1cccc(CNC2CCN(Cc3ccc(-c4nc5cc[nH]c(=O)c5cc4-c4ccccc4)cc3)CC2)c1 [compound 32],192 ± 45 nM,1900 ± 578 nM,2200 ± 125 nM,4020 ± 912 nM,327 ± 27 nM,0.00118 s⁻¹,4000 ± 1000 M⁻¹ s⁻¹,–,–,6760 ± 1460 nM,384 ± 62 nM,3290 ± 298 nM,–
C=CC(=O)Nc1cc2c(cc1Cl)[nH]c(=O)n2C1CCN(Cc2ccc(-c3nc4cc[nH]c(=O)c4cc3-c3ccccc3)cc2)CC1 [24a],1.2 ± 0.3 nM,25 ± 7 nM,138 ± 81 nM,259 ± 68 nM,–,–,–,–,–,2310 ± 908 nM,2 nM,159 ± 70 nM,"half-life at 1 h, 3 µM [10]: 87 min; microsomal CLint at 3 µM [10]: 5 µL/min/mg"
"NC1(C(=O)N[C@@H](CCO)c2ccc(Cl)cc2)CCN(c2ncnc3[nH]ccc23)CC1 [Capivasertib, reference compound]",–,–,555 nM,1600 ± 450 nM,–,–,–,33 min,14 µL/min/mg,–,–,–,–

# Further lines, with some results ahead:
IC50 [1],"EC50 ([2]; T47D (breast), day 5)","EC50 ([3]; MCF-7 (breast), day 5)","EC50 ([5]; 120 h, BT-474 (breast), day 5)",Ki [8],kinact [8],kinact/KI [8],"half-life at 1 h, 3 µM ([9]; liver microsomes)",microsomal CLint at 3 µM ([9]; liver microsomes),Compound,"EC50 [4, 11]","EC50 ([6]; 120 h, ZR-75-1 (breast), day 5)","EC50 ([7]; AN3CA (endometrium), day 5)",other results
10.8 ± 2.5 nM,41 ± 19 nM,1020 ± 621 nM,2270 ± 700 nM,27.2 ± 4.2 nM,0.0023 s⁻¹,85000 ± 18000 M⁻¹ s⁻¹,–,–,C=CC(=O)Nc1ccccc1C(=O)NC1CCN(Cc2ccc(-c3nc4cc[nH]c(=O)c4cc3-c3ccccc3)cc2)CC1 [30a],5540 ± 1510 nM,22 ± 7 nM,1330 ± 60 nM,–
285 ± 65 nM,1360 ± 454 nM,2840 ± 685 nM,5210 ± 1890 nM,362 ± 74 nM,0.0007 s⁻¹,2000 ± 1000 M⁻¹ s⁻¹,–,–,C=CC(=O)Nc1ccc(C(=O)NC2CCN(Cc3ccc(-c4nc5cc[nH]c(=O)c5cc4-c4ccccc4)cc3)CC2)cc1 [30c],–,151 ± 47 nM,3470 ± 1690 nM,–
–,–,–,1680 ± 316 nM,–,–,–,347 min,1 µL/min/mg,"NC1(c2ccc(-c3nc4ccn5c(=O)[nH]nc5c4cc3-c3ccccc3)cc2)CCC1 [MK-2206, reference compound]",7050 ± 421 nM,63 ± 21 nM,–,–
3.7 ± 0.7 nM,179 ± 30 nM,224 ± 88 nM,621 ± 85 nM,7.6 ± 1.1 nM,0.0013 s⁻¹,168000 ± 25000 M⁻¹ s⁻¹,39 min,12 µL/min/mg,C=CC(=O)Nc1cc(Br)cc(C(=O)NC2CCN(Cc3ccc(-c4nc5cc[nH]c(=O)c5cc4-c4ccccc4)cc3)CC2)c1 [30e],6440 ± 1240 nM,10 ± 3 nM,568 ± 106 nM,–
52.8 ± 16.3 nM,546 ± 87 nM,2440 ± 1020 nM,1960 ± 391 nM,98.6 ± 10 nM,0.00142 s⁻¹,14000 ± 2000 M⁻¹ s⁻¹,–,–,C=CC(=O)Nc1ccc(C(=O)NC2CCN(Cc3ccc(-c4nc5cc[nH]c(=O)c5cc4-c4ccccc4)cc3)CC2)c(F)c1 [30d],6070 ± 1100 nM,73 ± 25 nM,1310 ± 158 nM,–
18.1 ± 4.9 nM,2110 ± 49 nM,–,–,33 ± 2.4 nM,0.000833 s⁻¹,25000 ± 5000 M⁻¹ s⁻¹,–,–,CN(C)C/C=C/C(=O)Nc1ccc2[nH]c(=O)n(C3CCN(Cc4ccc(-c5nc6cc[nH]c(=O)c6cc5-c5ccccc5)cc4)CC3)c2c1 [24c],> 30000 nM,427 ± 23 nM,–,fold loss in inhibitory activity (IC50) compared to 1 [1]: 20 fold
14 ± 6.1 nM,183 ± 52 nM,1190 ± 518 nM,1100 ± 212 nM,39.3 ± 6.6 nM,0.00147 s⁻¹,38000 ± 7000 M⁻¹ s⁻¹,39 min,12 µL/min/mg,C=CC(=O)Nc1ccc(C(=O)NC2CCN(Cc3ccc(-c4nc5cc[nH]c(=O)c5cc4-c4ccccc4)cc3)CC2)s1 [30f],3060 ± 848 nM,33 ± 9 nM,879 ± 223 nM,–
